Laboratory results published in US5981517A, “Androstene derivatives” (priority 1997, dated 1999).

Legend:
[1] = system: forearm of a human volunteer; experiment: Further human vasoconstriction testing, Method 2; format: in vivo; set-up: key: +: "positive" (pallor could be observed); -: "negative" (pallor could not be detected)
Experimental: The mixtures, in 20 μL amounts, were applied to circular patches (1/4 inch diameter). The patches were applied to the forearm of a human volunteer, and covered with a water impervious film for 3 hr. Vasoconstriction activity was judged by the appearance of pallor at various time points after the patches were removed. Tests were performed on the same person and the results were obtained from 2-4 observations.
In TABLE XIV above, "-" means a negative result was obtained. In other tables herein, "-" means not tested.
In TABLE XIV above, the results of a simpler method of judging vasoconstriction activity was used in which only "positive" (pallor could be observed) or "negative" (pallor could not be detected) results were recorded.

[2] = Stability in human plasma; format: in vitro ADME; details: human, plasma
Experimental: (§1) A Waters NOVA-PAK phenyl column was connected to a Spectra-Physics component system consisting of a SP 8810 precision isocratic pump, a Rheodyne 7125 injector (injection volume 20 μL), an SP 8450 UV/VIS variable wavelength detector (operated at 254 nm) and a SP 4270 integrator. […]. The retention times of compound of the invention J and its metabolities L and M were 8.64, 2.70 and 2.45 minutes, respectively. The retention times of compound of the invention I and its metabolites N and 0 were 5.84, 2.70 and 1.81 minutes, respectively. The retention time of cortienic acid was 1.00 minute.
(§2) Freshly collected human or rat plasma was used. An aliquot of 10 mM test compound in ethanol solution was added to prewarmed (37° C.) plasma to yield a final concentration of 100 μM. At appropriate time intervals, samples (0.1 mL) were removed and mixed with 0.2 mL of 5% dimethylsulfoxide/acetonitrile solution. Mixtures were centrifuged and supernatants were analyzed by HPLC. The pseudo-first order rate constant of the disappearance of compound in the biological media was determined by linear regression analysis from the plot of log peak area and peak height versus time.
(§3) Stability was evaluated by the pseudo first-order rate constant (k, hr^-1) and half-life (t1/2, hr) of the disappearance of the test compound in the media.

[3] = Stability in rat plasma; format: in vitro ADME; details: rat, plasma
Experimental: as §1, §2, §3

[4] = physchem; format: physicochemical
Experimental: (§4) A Whatman C-18 column (4.6 mm×108 mm) was connected to a Spectra-Physics component system consisting of a SP 8810 precision isocratic pump, Rheodyne 7125 injector (20 μL injection volume), SP 8450 UV/VIS variable wavelength detector (230 nm), and SP 4290 integrator. The system was operated at ambient temperature. The mobile phase consisted of acetonitrile, acetic acid and water (60:0.1:40). At a flow rate of 1.0 mL/minute, the retention times for the test compounds were 4.74 minutes for Compound A, 5.84 minutes for Compound B, 6.93 minutes for Compound C, and 5.72 minutes for Compound D.
(§5) HPLC peak area and peak height were used as a measure of the concentration of the test compounds and plotted against time to evaluate the disappearance rates of the compounds. The stability was determined by measuring the pseudo-first order rate constant (kobs in min^-1) or half-life (t1/2 in min) of disappearance of the test compound in buffer. […].
The stabilities of test compounds A, B, C, and D, were tested in buffer solutions in the pH range of 4.0 to 9.0. A 0.1 mL portion of each compound at a concentration of 1 mM was mixed with 10 mL phosphate buffer (made by combining 0.05 M of NaH2 PO4 and 0.05 M of Na2 HPO4 with 0.05 M of NaCl) to give a final concentration of 0.01 mM. The mixtures were incubated at 37° C., and samples were taken and injected in the HPLC system at appropriate time intervals. pH profiles of each test compound are shown in TABLE III below. […]

[5] = Stability in rat blood; format: in vitro ADME; details: rat, blood
Experimental: as §4, §5
(§6) A 0.2 mL aliquot of stock solution (1 mM) of each of the test compounds A, B, C, and D, was added to 2 mL of each biological media (whole heparinized rat blood, 20% rat liver homogenate, and 6-volume diluted lung homogenate in isotonic buffer of pH 7.40 made by combining 0.05 M of Na2 HPO4 and 0.05 M of NaH2 PO4 with 0.05 M of NaCl), which was kept in a 37° C. water bath, to obtain a final concentration of 0.1 mM in each biological medium. Samples of 0.1 mL were taken at appropriate time intervals for 2 hours (at 0, 3, 5, 10, 20, 40, 60, 90 and 120 minutes) and mixed with 0.2 mL of acetonitrile containing 5% DMSO. Each mixture was centrifuged and the supernatant was injected in the HPLC.

[6] = Stability in liver homogenate; format: in vitro ADME, rat; details: rat, liver homogenate
Experimental: as §4, §5, §6

[7] = Stability in lung homogenate; format: in vitro ADME; details: rat, lung homogenate
Experimental: as §4, §5, §6

[8] = system: forearm of a human volunteer; experiment: Human vasoconstriction test; format: in vivo; set-up: key: 0 = normal skin, 4 = very intense pallor; details: 10 mM
Experimental: Test compounds (10 mM) were dissolved in ethanol/propylene glycol (9/1) solution, and 50 μL of the mixtures were applied to circular patches, 8 mm in diameter. After ethanol evaporation, the patches were applied to the forearm of a human volunteer, and covered with a water impervious film for 3 hours. The intensity of vasoconstriction was judged 1, 8, 17 and 24 hours after the patches were removed.
The grading scale for the vasoconstriction activity was as follows: 0, normal skin; 1, slight pallor of indistinct outline; 2, pallor with at least two corners outlined; 3, even pallor with a clear outline of the application sites; 4, very intense pallor.

[9] = aqueous phosphate buffer, pH 4.5
[10] = aqueous phosphate buffer, pH 6.56
[11] = aqueous phosphate buffer, pH 7.4
[12] = aqueous phosphate buffer, pH 8.08

Row | SMILES | Vasoconstriction activity ([1]; 4 Hours, 0.01 mM) | Vasoconstriction activity ([1]; 4 Hours, 0.05 mM) | Vasoconstriction activity ([1]; 4 Hours, 0.1 mM) | Vasoconstriction activity ([1]; 4 Hours, 0.5 mM) | Vasoconstriction activity ([1]; 4 Hours, 1 mM) | Vasoconstriction activity ([1]; 4 Hours, 5 mM) | Vasoconstriction activity ([1]; 8 Hours, 0.01 mM) | Vasoconstriction activity ([1]; 8 Hours, 0.05 mM) | Vasoconstriction activity ([1]; 8 Hours, 0.1 mM) | Vasoconstriction activity ([1]; 8 Hours, 0.5 mM) | Vasoconstriction activity ([1]; 8 Hours, 1 mM) | Vasoconstriction activity ([1]; 8 Hours, 5 mM) | Vasoconstriction activity ([1]; 10-22 hours, 0.01 mM) | Vasoconstriction activity ([1]; 10-22 hours, 0.05 mM) | Vasoconstriction activity ([1]; 10-22 hours, 0.1 mM) | Vasoconstriction activity ([1]; 10-22 hours, 0.5 mM) | Vasoconstriction activity ([1]; 10-22 hours, 1 mM) | Vasoconstriction activity ([1]; 10-22 hours, 5 mM) | Vasoconstriction activity ([1]; 24 Hours, 0.01 mM) | Vasoconstriction activity ([1]; 24 Hours, 0.05 mM) | further results
1 | CCCCC(=O)O[C@]1(C(=O)CO)[C@@H](C)C[C@H]2[C@@H]3CCC4=CC(=O)C=C[C@]4(C)[C@@]3(F)[C@@H](O)C[C@@]21C [Betamethasone 17-valerate, reference compound] | - | - | - | - | + | + | - | - | - | + | + | + | - | - | - | + | + | + | - | - | Vasoconstriction activity ([1]; 24 Hours, 0.1 mM): -; Vasoconstriction activity ([1]; 24 Hours, 0.5 mM): -; Vasoconstriction activity ([1]; 24 Hours, 1 mM): +; Vasoconstriction activity ([1]; 24 Hours, 5 mM): +
2 | CCOC(=O)[C@@]1(OC(=O)C(Cl)Cl)[C@H](C)C[C@H]2[C@@H]3CCC4=CC(=O)C=C[C@]4(C)[C@@]3(F)[C@@H](O)C[C@@]21C [J, ethyl 17α-dichloroacetoxy-9α-fluoro-11β-hydroxy-16α-methylandrosta-1,4-dien-3-one-17β-carboxylate] | - | - | - | - | + | + | - | - | - | + | + | + | - | - | - | + | + | + | - | - | half-life at 100 µM [2]: 40.1 h; half-life at 100 µM [3]: 40.7 h; Vasoconstriction activity ([1]; 24 Hours, 0.1 mM): -; Vasoconstriction activity ([1]; 24 Hours, 0.5 mM): +; Vasoconstriction activity ([1]; 24 Hours, 1 mM): +; Vasoconstriction activity ([1]; 24 Hours, 5 mM): +
3 | C[C@]12C=CC(=O)C=C1CC[C@@H]1[C@@H]2[C@@H](O)C[C@@]2(C)[C@H]1CC[C@]2(OC(=O)C(Cl)Cl)C(=O)OCCl [Compound D, Chloromethyl 17α-dichloroacetoxy-11β-hydroxyandrosta-1,4-dien-3-one-17β-carboxylate] |  |  |  |  |  |  |  |  |  |  |  |  |  |  |  |  |  |  |  |  | half-life [4, 9]: 14 h; half-life [4, 10]: 0.822 h; half-life [4, 11]: 0.232 h; half-life [4, 12]: 0.0483 h; half-life ([4]; aqueous phosphate buffer, pH 9): 0.0178 h; half-life ([4]; buffer, pH 7.4): 0.232 h; half-life at 100 µM [5]: 0.193 h; half-life at 100 µM [6]: 0.127 h; half-life at 100 µM [7]: 0.873 h; Vasoconstriction activity ([8]; 1 hour after patch removal): 3; Vasoconstriction activity ([8]; 8 hours after patch removal): 4; Vasoconstriction activity ([8]; 17 hours after patch removal): 3; Vasoconstriction activity ([8]; 24 hours after patch removal): 2
4 | COC(=O)[C@@]1(OC(=O)C(Cl)Cl)[C@H](C)C[C@H]2[C@@H]3CCC4=CC(=O)C=C[C@]4(C)[C@@]3(F)[C@@H](O)C[C@@]21C [Compound I, methyl 17α-dichloroacetoxy-9α-fluoro-11β-hydroxy-16α-methylandrosta-1,4-dien-3-one-17β-carboxylate] | - | - | + | + | + | + | - | + | + | + | + | + | - | - | + | + | + | + | - | - | half-life at 100 µM [2]: 10.9 h; half-life at 100 µM [3]: 9.88 h; Vasoconstriction activity ([1]; 24 Hours, 0.1 mM): +; Vasoconstriction activity ([1]; 24 Hours, 0.5 mM): +; Vasoconstriction activity ([1]; 24 Hours, 1 mM): +; Vasoconstriction activity ([1]; 24 Hours, 5 mM): +
5 | COC(=O)[C@@]1(OC(=O)C(Cl)Cl)CC[C@H]2[C@@H]3CCC4=CC(=O)C=C[C@]4(C)[C@H]3[C@@H](O)C[C@@]21C [Compound A, Methyl 17α-dichloroacetoxy-11β-hydroxyandrosta-1,4-dien-3-one-17β-carboxylate] |  |  |  |  |  |  |  |  |  |  |  |  |  |  |  |  |  |  |  |  | half-life [4, 9]: > 48 h; half-life [4, 10]: 19.1 h; half-life [4, 11]: 3.37 h; half-life [4, 12]: 0.35 h; half-life ([4]; aqueous phosphate buffer, pH 9): 0.0708 h; half-life ([4]; buffer, pH 7.4): 3.37 h; half-life at 100 µM [5]: 0.448 h; half-life at 100 µM [6]: 0.0617 h; half-life at 100 µM [7]: 0.718 h; Vasoconstriction activity ([8]; 1 hour after patch removal): 2; Vasoconstriction activity ([8]; 8 hours after patch removal): 4; Vasoconstriction activity ([8]; 17 hours after patch removal): 4; Vasoconstriction activity ([8]; 24 hours after patch removal): 4
6 | CC(C)OC(=O)[C@@]1(OC(=O)C(Cl)Cl)CC[C@H]2[C@@H]3CCC4=CC(=O)C=C[C@]4(C)[C@H]3[C@@H](O)C[C@@]21C [Compound C, Isopropyl 17α-dichloroacetoxy-11β-hydroxyandrosta-1,4-dien-3-one-17β-carboxylate] |  |  |  |  |  |  |  |  |  |  |  |  |  |  |  |  |  |  |  |  | half-life [4, 9]: > 48 h; half-life [4, 10]: 11.3 h; half-life [4, 11]: 16.2 h; half-life [4, 12]: 2.08 h; half-life ([4]; aqueous phosphate buffer, pH 9): 0.27 h; half-life ([4]; buffer, pH 7.4): 11 h; half-life at 100 µM [5]: 1.78 h; half-life at 100 µM [6]: 0.488 h; half-life at 100 µM [7]: 2.84 h; Vasoconstriction activity ([8]; 1 hour after patch removal): 3; Vasoconstriction activity ([8]; 8 hours after patch removal): 4; Vasoconstriction activity ([8]; 17 hours after patch removal): 3; Vasoconstriction activity ([8]; 24 hours after patch removal): 2
